From US7829560B2, “1,4-disubstituted naphthalenes as inhibitors of P38 MAP kinase” (Arqule, Inc., priority 2004, dated 2010)
Several values for one entry are separate records, joined by “and”; a condition that tells them apart may be missing. Equal entries are not always repeated.

Legend:
[1] = target: T1, p38α (Homo sapiens, UniProt Q16539); assay: p38 MAP Kinase assay: inhibition of ATF2 phosphorylation, ELISA; assay type: biochemical; conditions: for inhibition at 10 µM: substrate ATF2, read-out: [ENZ] P38 ALPHA, PCT INH, ELISA (10 uM;ATF2) (Percent); for IC50: ATF2 phosphorylation, read-out: [ENZ] P38 ALPHA, IC50, ELISA
T1 construct: p38 MAP Kinases are recombinant human full-length proteins with an amino-terminal GST fusion; GST (N); purchased Upstate Biotechnology Inc; host or cells: E. coli
T1 sequence (Q16539 whole entry, the tested form may be a part): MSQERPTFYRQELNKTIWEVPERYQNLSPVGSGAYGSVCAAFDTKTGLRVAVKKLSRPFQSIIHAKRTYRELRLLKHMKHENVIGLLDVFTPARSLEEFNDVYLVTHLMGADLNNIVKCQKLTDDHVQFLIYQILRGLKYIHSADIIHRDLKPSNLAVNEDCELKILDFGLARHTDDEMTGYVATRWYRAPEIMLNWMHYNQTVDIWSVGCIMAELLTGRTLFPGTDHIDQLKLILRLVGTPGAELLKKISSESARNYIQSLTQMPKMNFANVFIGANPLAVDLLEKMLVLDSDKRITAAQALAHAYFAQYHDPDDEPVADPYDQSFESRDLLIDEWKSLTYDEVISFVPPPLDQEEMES
Source text: Compounds of the invention are screened for the ability to inhibit ATF2 phosphorylation by p38 MAP Kinase in vitro. The ability of compounds to inhibit ATF2 phosphorylation in this in vitro assay is correlated with the inhibition of p38 MAP Kinase and TNFα expression in vivo, and is therefore an indicator of potential in vivo therapeutic activity (Raingeaud, J., et al, J. Biol. Chem., 270: 7420-7426, 1995, Brinkman, M. N., et al, J. Biol. Chem. 274: 30882-30886, 1999 and Fuchs, S. Y. et al, J. Biol. Chem. 275: 12560-12564, 2000).
Materials: All kinases and the substrate ATF2 are acquired from Upstate Biotechnology Inc. p38 MAP Kinases are recombinant human full-length proteins with an amino-terminal GST fusion, expressed in and purified from E. coli. ATF2 is a GST fusion protein containing amino acids 19-96 of human ATF2 expressed in E. coli. All proteins are aliquoted and stored at −80° C.
Methods: p38 MAP Kinase assays are performed using an assay buffer containing 25 mM HEPES, pH 7.5, 10 mM MgCl2, 2 mM DTT, 20 mM β-glycerophosphate, 0.1 mM Na3VO4, 40 μM ATP and 1.25 μM of ATF2 and in the absence or presence of 1% human serum albumin, Method I and II, respectively, with 0.4-6 ng of protein depending on the kinase used. Compounds are serially diluted in DMSO and 2 μL of test compound at 25× final concentration is used. The vehicle control receives DMSO only. Test compounds are pre-incubated with 20 μl of enzyme in kinase buffer (25 mM HEPES, pH 7.5, 10 mM MgCl2, 2 mM DTT, 20 mM β-glycerophosphate, 0.1 mM Na3VO4 in the absence or presence of 1% human serum albumin, Method I and II, respectively) at room temperature for 15 minutes. […] The reactions are incubated for 30 minutes at 37° C. and terminated by the addition of 18 μl of 200 mM EDTA. An ELISA method (I or II) is used to measure the phosphorylation of ATF2 at Thr 69. Method I: 96-well high binding plates (Corning 3369) are coated with 50 μl of kinase reaction for 1 hour at 37° C. The coated plates are washed with 200 μl washing buffer (25 mM Tris HCl, pH 8.3, 192 mM glycine, 0.1% SDS and 0.05% Tween-20) three times. The plates are then washed three times with SuperBlock in TBS (Pierce, 37535). After blocking, plates are incubated with 50 μl of rabbit anti-phospho-ATF2 antibody (Cell Signaling, 9221L, 1:500) for 30 minutes at 37° C. Plates are washed three times with washing buffer prior to incubation with 50 μl HRP-conjugated goat anti-rabbit antibody (Cell Signaling, 7074, 1:500) for 30 minutes at 37° C. Plates are then washed three times with washing buffer before incubation with 50 μl of Ultra TMB-ELISA (Pierce, 34028) for 8 minutes at room temperature. Finally, 50 ul of phosphoric acid (1 M) is added to stop reactions and plate absorbance is read at 450 nm on a SpectraMax 250 plate reader. Method II: 96-well high binding plates (Corning 3369) are coated with 400 ng of monoclonal antibody against GST-tag (Cell signaling) in 100 μl containing sodium borate (pH 8.3) for 90 minutes at 37° C. The plates are washed with 200 μl washing buffer (25 mM Tris HCl, pH 7.2, 150 mM NaCl and Tween-20) three times and blocked with 200 μl of 5% nonfat milk for 30 minutes at room temperature. The plates are washed three times with washing buffer, 50 μl of stopped kinase reaction are added to each well and incubated for 80 minutes at 37° C. The plates are washed three times with 200 μl washing buffer, and the plates are incubated with 50 μl of rabbit anti-phospho-ATF2 antibody (Cell Signaling, 9221L, 1:500) for 30 minutes at 37° C. Plates are washed three times with washing buffer prior to incubation with 50 μl HRP-conjugated goat anti-rabbit antibody (Cell Signaling, 7074, 1:500) for 30 minutes at 37° C. Plates are washed three times with washing buffer before incubation with 50 μl of Ultra TMB-ELISA (Pierce, 34028) for 25 minutes at room temperature. Finally, 50 μl of phosphoric acid (1 M) is added to stop reactions and plate absorbance is read at 450 nm on a SpectraMax 250 plate reader. […]

[2] = tested on: TNFα release from THP-1 cells; assay: Inhibition of TNFα release from LPS-stimulated THP-1 cells, ELISA; assay type: cell-based; conditions: Homo sapiens, THP-1, THP-1 cells, read-out: [CELL] THP-1, IC50, TNF ALPHA, ELISA
Source text: Compounds of the invention are screened for the ability to inhibit TNFα and IL-1β release from THP-1 cells stimulated with lipopolysaccharide (LPS) in vitro. The ability of compounds to inhibit TNFα and IL-1β release in this in vitro assay is correlated with the inhibition of p38 activity and TNFα and IL-1β expression in vivo, and is therefore an indicator of potential in vivo therapeutic activity (Lee J. C. et al, Ann. N.Y. Acad. Sci. 696: 149-170, 1993 and Nature, 372: 739-746, 1994).
Materials: THP-1 cells from ATCC (TIB202) are maintained at 37° C., 5% CO2 in RPMI 1640 media (available from MediaTech, Herndon, Va.) containing 4.5 g/L glucose, supplemented with 10% fetal bovine serum, 1% penicillin/streptomycin and 50 μM β-mercaptoethanol.
Methods: Test compounds are initially dissolved in RPMI media with 1% DMSO (v/v). Compounds are then serially diluted in RPMI media for all subsequent dilutions. The assay is performed under sterile conditions. THP-1 cells at a culture density of 6-8×10^5 cells/ml are collected and resuspended in the RPMI media at 10^6 cells/ml containing 10% fetal bovine serum, no serum or 1% human serum albumin (HSA). 100 μl of resuspended cells are added to each well, which contain 100 μl of a test compound. Test compounds are prepared at twice the final concentration. Final DMSO concentration is no more than 0.5% (v/v). Cells are preincubated with compound for 30 minutes at 37° C., 5% CO2 prior to stimulation with lipopolysaccharide (LPS) (Sigma L-2880, 4 mg/ml stock in PBS). The final LPS concentration in each well is 10 or 30 μg/ml for TNFα and IL-1β release, respectively. Unstimulated control cell suspensions receive PBS vehicle only. Cell mixtures are incubated for 18 or 48 hours for TNFα and IL-1β prelease, respectively. 150 μl of supernatants are taken and transferred to a fresh plate and stored at −20° C. until further analysis. TNFα and IL-1β levels are measured using ELISA kits from Biosource (Catalog no. KHC3012 for TNFα; KAC1192 for IL-1β). A SpectraMAX 250 is used as the plate reader. Analysis is performed by non-linear regression to generate a dose response curve. The calculated IC50 value is the concentration of the test compound that causes a 50% decrease in TNFα or IL-1β levels.

Row | inhibition at 10 µM [1] [%] | IC50 [1] | IC50 [2] [nM] | SMILES
1 | 61 | > 1000 nM | 6430 | N#Cc1cccc(-c2cccc(C(=O)Nc3ccc(OCCN4CCOCC4)c4ccccc34)c2)c1 [Compound B110]
2 | 52 | 7680 nM | 8500 | CCN(C)c1cc(C(=O)Nc2ccc(OCCN3CCOCC3)c3ccccc23)ccn1 [Compound B133, 2-(Ethyl-methyl-amino)-N-[4-(2-morpholin-4-yl-ethoxy)-naphthalen-1-yl]-isonicotinamide]
3 | – | – | 3400 | O=C(Nc1ccc(OCCN2CCOCC2)c2ccccc12)c1cccc(-c2cccc(F)c2)c1 [Compound B272]
4 | – | 162 nM | 152 | CSc1nccc(Oc2ccc(NC(=O)c3cccc(-c4ccc(F)cc4C)c3)c3ccccc23)n1 [Compound B269, 4′-Fluoro-2′-methyl-biphenyl-3-carboxylic acid [4-(2-methylsulfanylpyrimidin-4-yloxy)-naphthalen-1-yl]-amide]
5 | – | > 100000 nM | > 10000 | CN(C)c1ccccc1C(=O)Nc1ccc(OCCN2CCOCC2)c2ccccc12 [Compound B35]
6 | – | > 100000 nM | > 10000 | Cc1ccc(C(=O)Nc2ccc(OCCN3CCOCC3)c3ccccc23)cc1Br [Compound B37]
7 | – | 1010 nM | 1010 | O=C(Nc1ccc(CCCN2CCOCC2)c2ccccc12)c1cc(F)cc(N2CCOCC2)c1 [Compound B240, 3-Fluoro-5-morpholin-4-yl-N-[4-(3-morpholin-4-yl-propyl)-naphthalen-1-yl]-benzamide]
8 | – | 6 nM | 201 | CC(C)Nc1nccc(Oc2ccc(NC(=O)c3cc(F)cc(N4CCCCC4)c3)c3ccccc23)n1 [Compound B396, 3-Fluoro-N-(4-{[2-(isopropylamino)pyrimidin-4-yl]oxy}-1-naphthyl)-5-piperidin-1-ylbenzamide]
9 | – | 4.2 nM | 104 | O=C(Nc1ccc(Oc2ccnc(N3CCC(CO)CC3)n2)c2ccccc12)c1cc(F)cc(N2CCOCC2)c1 [Compound B359]
10 | – | 1880 nM | 8710 | Cc1cccc(-c2cccc(C(=O)Nc3ccc(OCCN4CCOCC4)c4ccccc34)c2)c1C [Compound B296]
11 | – | 3980 nM | 3570 | O=C(Nc1ccc(OCCN2CCOCC2)c2ccccc12)c1cccc(-c2ccc(F)c(Cl)c2)c1 [Compound B275]
12 | 58.5 | 1820 nM | > 10000 | CCOC(=O)C1CCN(CCOc2ccc(NC(=O)c3cc(F)cc(N4CCCCC4)c3)c3ccccc23)CC1 [Compound B160, 1-{2-[4-(3-Fluoro-5-piperidin-1-yl-benzoylamino)-naphthalen-1-yloxy]-ethyl}-piperidine-4-carboxylic acid ethyl ester]
13 | 57 | 4840 nM | > 10000 | O=C(Nc1ccc(OCCN2CCC(CO)CC2)c2ccccc12)c1cc(F)cc(N2CCCCC2)c1 [Compound B163, 3-Fluoro-N-{4-[2-(4-hydroxymethyl-piperidin-1-yl)-ethoxy]-naphthalen-1-yl}-5-piperidin-1-yl-benzamide]
14 | – | 2 nM and 2.2 nM | 48.3 | CN(C)CC(C)(C)CNc1nccc(Oc2ccc(NC(=O)c3cc(F)cc(OC4CCCCC4)c3)c3ccccc23)n1 [Compound B313]
15 | – | 9190 nM | 6140 | CCc1ccccc1-c1cccc(C(=O)Nc2ccc(OCCN3CCOCC3)c3ccccc23)c1 [Compound B291]
16 | – | > 10000 nM | > 10000 | O=C(Nc1ccc(OCCN2CCOCC2)c2ccccc12)c1cc(F)cc(N2CCN(c3ccc(F)cc3)CC2)c1 [Compound B203]
17 | – | > 10000 nM | > 10000 | O=C(Nc1ccc(OCCN2CCOCC2)c2ccccc12)c1ccc2c(c1)OCCCO2 [Compound B62]
18 | – | 207 nM | > 1000 | CC1CC(C)CN(c2nccc(Oc3ccc(NC(=O)c4cc(F)cc(N5CCCCC5)c4)c4ccccc34)n2)C1 (stereo not shown) [Compound B391]
19 | – | 10300 nM | > 10000 | Cc1cc(Cl)ccc1-c1cccc(C(=O)Nc2ccc(OCCN3CCOCC3)c3ccccc23)c1 [Compound B293]
20 | – | 777 nM | 1840 | O=C(Nc1ccc(OCCN2CCOCC2)c2ccccc12)c1cccc(-c2ccc(F)cc2)c1 [Compound B277]
21 | – | 22.5 nM | 63 | CCN1CCC[C@H]1CNc1nccc(Oc2ccc(NC(=O)c3cc(F)cc(N4CCOCC4)c3)c3ccccc23)n1 [Compound B360]
22 | – | > 10000 nM | > 10000 | O=C(Nc1ccc(OCCN2CCOCC2)c2ccccc12)c1cccc(CN2CCCCC2)c1 [Compound B55]
23 | – | 264 nM | > 1000 | CN(C)C(=O)[C@@H]1CCCN1c1nccc(Oc2ccc(NC(=O)c3cc(F)cc(N4CCOCC4)c3)c3ccccc23)n1 [Compound B356]
24 | – | 1680 nM | > 10000 | CC1CCCC(C)N1c1cc(F)cc(C(=O)Nc2ccc(OCCN3CCOCC3)c3ccccc23)c1 (stereo not shown) [Compound B205, 3-(2,6-Dimethylpiperidin-1-yl)-5-fluoro-N-[4-(2-morpholin-4-ylethoxy)-1-naphthyl]benzamide]
25 | – | – | > 1000 | CN(C)C(=O)[C@@H]1CCCN1c1nccc(Oc2ccc(NC(=O)c3cc(F)cc(N4CCCCC4)c3)c3ccccc23)n1 [Compound B408]
